Series [1] has as its system Human ovarian cancer cell line OVCAR-3. Briefly: Administration schedule study in nude mouse model subcutaneously transplanted with OVCAR-3. In kind it is in vivo. The following applies: OVCAR-3 xenograft, FIG. 1. The procedure: Human ovarian cancer cell line OVCAR-3 (American Type Culture Collection (ATCC)) that had been subcutaneously subcultured in mice was cut to about 2 mm squares and subcutaneously transplanted into 5-week-old […] BALB/cAJcl-nu/nu mice (CLEA Japan, Inc.) using a transplantation needle.
The grouping day was defined as Day 1.
The tumor volume (TV) was calculated using the following formula.
TV=(major axis×minor axis×minor axis)×½
Requisite amounts of Compound 1 were weighed, and each was individually suspended in a 0.5% (w/v) hydroxypropyl methylcellulose (HPMC) aqueous solution to prepare administration liquids having appropriate concentrations. For the control group, a 0.5% (w/v) HPMC aqueous solution was used as an administration liquid.
The administration amount was 10 mL/kg body weight, and each administration liquid was individually injected into the stomach of the mice with a feeding needle.
Twice a week, the major axis and the minor axis of each tumor were measured from the skin with an electronic caliper, and the following items were further calculated. These were used as indexes to confirm the presence or absence of an antitumor effect.
Tumor volume (TVn)=(major axis×minor axis×minor axis)×½ […]
On the same days as the tumor volume measurement, the body weight (BW) of the mice was measured with an electronic balance, and the body weight change (BWC) was further calculated. […]

A short description of series [2]: Dose escalation (3+3 design) to determine recommend dose and administration schedule in humans. In kind it is in vivo, human. The following applies: oral once a day, patients with advanced solid cancers. The procedure:
This test was performed to determine the recommend dose and administration schedule of Compound 1 and investigate the safety profile of Compound 1 for patients with advanced solid cancers for which standard treatment options are not available.
In this Example, first, the recommend doses for the schedule of administration for 7 consecutive days and the schedule of 4-administration with 3-withdrawal were determined. In the schedule of administration of Compound 1 for 7 consecutive days, Compound 1 was orally administered consecutively once a day for three courses for a total duration of 21 days, with one course taken as 7 days. In 4-administration with 3-withdrawal, Compound 1 was orally administered once a day on day 1 to day 4, day 8 to day 11, and day 15 to day 18 of three courses for a total duration of 21 days, with one course taken as 7 days.
In the schedule of administration for 7 consecutive days, the administration amount taken at one time started at 4 mg/body/day. […]
In the present invention, the 3+3 design was performed in the following manner. […] Whether the level proceeds is determined by the investigator and the sponsor based on comprehensive considerations of not only the information on DLTs, but also all related toxicities regardless of whether they are DLTs, and drugs used in combination/combination therapy from a clinical perspective. […]

A short description of series [3]: Pharmacokinetics of Compound 1 in humans. Format: in vivo, human. The following applies: for Blood concentration remaining before administration: 24 mg/body/day, 4-administration with 3-withdrawal. The procedure:
The pharmacokinetics of the recommend doses of Compound 1 in administration for 7 consecutive days and 4-administration with 3-withdrawal were measured in patients with advanced solid cancers for which standard treatment options were not available.
In the administration for 7 consecutive days, Compound 1 was orally administered once a day at a dose of 16 mg/body/day for three courses for a total duration of 21 days, with one course taken as 7 days. Blood samples were taken over time on day 1 and day 21, which was the last administration day of the three courses, to measure the pharmacokinetics.
In the 4-administration with 3-withdrawal, Compound 1 was orally administered once a day at a dose of 24 mg/body/day for three courses for a total duration of 21 days, with one course taken as 7 days. Blood samples were taken over time on day 1 and day 18, which was the last administration day of the three courses, to measure the pharmacokinetics. Blood samples were also taken immediately before administration on day 3, day 4, and day 8.

In another series the test system is advanced solid cancers. Kind of series: Optimal dosage regimen study in humans: safety (non-prescribed withdrawal) and efficacy (RECIST) profiles. As to conditions: for Non-prescribed withdrawal: N = 6. In kind it is in vivo, human. The procedure:
With regard to Example 3, the optimal dosage regimen of Compound 1 was studied. The safety profiles and efficacy profiles when the recommend doses were administered in the schedule of administration for 7 consecutive days and the schedule of 4-administration with 3-withdrawal were compared in patients with advanced solid cancers for which standard treatment options were not available.
For the safety profiles, non-prescribed withdrawal periods were compared. The non-prescribed withdrawal period is a comprehensive index of safety profiles.
In this Example, dose modification criteria in the case of the occurrence of a toxicity for which a causal relationship to the drug cannot be denied were shown. Dose modification criteria for non-hematologic toxicities, dose modification criteria for hematologic toxicities, and dose modification criteria for other toxicities were set. When any of these criteria was met, a prescribed day to perform drug administration was changed to a day on which the drug is not administered, i.e., a non-prescribed withdrawal period.
The dose modification criteria for non-hematologic toxicities for which a causal relationship to the drug cannot be denied were set as follows.
With regard to fasting blood glucose, if symptomatic grade 4 hyperglycemia or grade 3 or higher hyperglycemia for more than 7 days develops, the administration is discontinued (non-prescribed withdrawal). If the condition recovers to grade 1 or grade 0, the administration can be resumed. When the administration is resumed, the administration amount is reduced by one level from the original administration amount. However, for adverse events (e.g., fatigue and skin dryness) that are judged to be less likely to become serious or worsen to life-threatening events, the administration of the drug can be continued at the same administration amount without dose reduction or administration discontinuation, regardless of the grades of the events.
In the case of DLTs or grade 3 or higher non-hematologic toxicities as other toxicities, the administration is discontinued (non-prescribed withdrawal). If the condition recovers to grade 1 or less or to the baseline, the administration can be resumed. As grade 3 or higher non-hematologic toxicities, grade 3 nausea and/or vomiting that could be treated by intensive antiemetic therapy, grade 3 diarrhea in which an antidiarrheal was effective, and grade 3 skin toxicity that could be treated by intensive skin treatment with, for example, a topical steroid and/or an oral corticosteroid are excluded. When the administration is resumed, the administration amount is reduced by one level from the original administration amount. However, for adverse events (e.g., fatigue and skin dryness) that are judged to be less likely to become serious or worsen to life-threatening events, the administration of the drug can be continued at the same administration amount without dose reduction or administration discontinuation, regardless of the grades of the events.
The dose modification criteria for hematologic toxicities for which a causal relationship to the drug cannot be denied were set as follows.
If the neutrophil count is less than 500/mm^3, the administration is discontinued (non-prescribed withdrawal). If the neutrophil count recovers to 1500/mm^3 or more, the administration can be resumed. […] In the case of asymptomatic neutropenia lasting more than 7 days or neutropenia with a symptom (neutropenia with an infectious disease or fever), the administration amount is reduced by one level from the original administration amount.
If the platelet count is less than 25000/mm^3, the administration is discontinued (non-prescribed withdrawal). If the platelet count recovers to 75000/mm^3 or more, the administration can be resumed. When the administration is resumed, the administration amount is reduced by one level from the original administration amount. […]

For series [4] the following is noted: mice; cited from earlier work.
The conditions of series [5]: humans; cited from earlier work.
[6] abbreviates: 4-administration with 3-withdrawal, 24 mg/body/day.
Setting [7] is: administration for 7 consecutive days, 16 mg/body/day.

This is an account of results in US20220354858A1, “METHOD FOR TREATING MALIGNANT TUMOR” (TAIHO PHARMACEUTICAL CO., LTD., priority 2019, published 2022).

Where “and” joins values, the source holds several entries; their conditions need not be identical. Equal values may be shown once. Read-outs that look alike come from different tables or passages of the source.

On to `C[C@]1(O)C[C@@](N)(c2ccc(-c3nc4n(c3-c3ccccc3)COc3ccncc3-4)cc2)C1` [Compound 1, trans-3-amino-1-methyl-3-(4-(3-phenyl-5H-imidazo[1,2-c]pyrido[3,4-e][1,3]oxazin-2-yl)phenyl)cyclobutanol], for which the Body weight change result in series [1] (each Compound 1 administration group) is “without serious weight loss”. For the same compound, in series [1] (oral 16 or 24 mg/kg/day 7 consecutive days or 24 mg/kg/day 4-administration with 3-withdrawal, Days 1-21), the “Antitumor effect (RTV, T/C)” value was “excellent antitumor effect”. Further, the entries for the “Maximum tolerable administration amount (recommend dose)” value in series [2] (4-administration with 3-withdrawal) and in series [2] (administration for 7 consecutive days) were 24 mg/body/day and 16 mg/body/day, respectively. Also, in series [3] (16 mg/body/day 7 consecutive days and 24 mg/body/day 4-administration with 3-withdrawal), the “Accumulation (blood drug concentrations day 21 or day 18 versus day 1)” value is listed as “has accumulation properties”. The “Blood concentration remaining before administration” value was 25.7 ng/mL in series [3] (day 3) and 35.7 ng/mL in series [3] (day 4). For the same compound, the Half-life in series [3] (human, blood, humans, oral) is ~49 h; in series [4], “about 2.3 hours”. The Non-prescribed withdrawal period with advanced solid cancers (setting [6]) is 2 days and 2.0 days; with advanced solid cancers (administration for 7 consecutive days, 16 mg/body/day, average) it was 3.7 days. In addition, the Non-prescribed withdrawal result is “one of six patients and 1/6” with advanced solid cancers (setting [6]); “three of six patients and 3/6” with advanced solid cancers (setting [7]). The RECIST evaluation result with advanced solid cancers (4-administration with 3-withdrawal, 24 mg/body/day, six patients) is “two of the six patients had stable disease (SD)”; with advanced solid cancers (setting [7]) it was “all of the patients had progressive disease (PD)”. Further, the “Tumor shrinkage effect (waterfall plots), 4-administration with 3-withdrawal versus 7 consecutive days” value in the series with advanced solid cancers (recommend doses, FIG. 4) was “superior”.

With AZD5363, the Half-life result in series [5] is “about 6 hours”.
